In patent US20240400555A1 (Initial Therapeutics, Inc., priority 2023, published 2024):
Like-named read-outs stand apart in the source and are kept apart here.

System: MV-4-11 cells
Assay: Cell Viability Assay in MV-4-11 Cells
Format: cell-based
Settings: Homo sapiens, MV4-11, 72 h
Method in brief: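 MV-4-11 cells at 7,000/well in IMDM with 10% FBS, exposed to compound for 72 h. Viability by CellTiter-Glo luminescence, normalized to DMSO as 100%, fitted with a four-parameter curve.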

[1] = MV-4-11 cells, 72 h, Cell-Titer Glo, read-out: IC50

| SMILES | IC50 [1] [nM] | IC50 [nM] |
| --- | --- | --- |
| Nc1cc(-c2cc3c(N(C(=O)c4ccc(-n5nnc6cccnc65)cc4F)[C@@H]4CCCNC4)nccc3s2)ccn1 [Example 383, N-[2-(2-amino-4-pyridyl)thieno[3,2-c]pyridin-4-yl]-2-fluoro-N-[(3R)-3-piperidyl]-4-(triazolo[4,5-b]pyridin-3-yl)benzamide] | 200 | – |
| O=C(c1ccc(-n2nnc3cccnc32)cc1F)N(c1nccc2cc(-c3ccncc3)sc12)[C@@H]1CCCNC1 [Example 384, 2-fluoro-N-[(3R)-3-piperidyl]-N-[2-(4-pyridyl)thieno[2,3-c]pyridin-7-yl]-4-(triazolo[4,5-b]pyridin-3-yl)benzamide] | 110 | – |
| COc1cccc(-c2cc3c(N(C(=O)c4ccc(-n5nnc6cccnc65)cc4F)[C@@H]4CCCNC4)nccc3s2)c1 [Example 385, (R)-4-(3H-[1,2,3]triazolo[4,5-b]pyridin-3-yl)-2-fluoro-N-(2-(3-methoxyphenyl)thieno[3,2-c]pyridin-4-yl)-N-(piperidin-3-yl)benzamide] | 520 | – |
| N#Cc1cc(-c2cc3c(N(C(=O)c4ccc(-n5nnc6cccnc65)cc4F)[C@@H]4CCCNC4)nccc3s2)ccn1 [Example 386, N-[2-(2-cyano-4-pyridyl)thieno[3,2-c]pyridin-4-yl]-2-fluoro-N-[(3R)-3-piperidyl]-4-(triazolo[4,5-b]pyridin-3-yl)benzamide] | 330 | – |
| N#Cc1ccc(-c2cc3c(N(C(=O)c4ccc(-n5nnc6cccnc65)cc4F)[C@@H]4CCCNC4)nccc3s2)cc1 [Example 387, N-[2-(4-cyanophenyl)thieno[3,2-c]pyridin-4-yl]-2-fluoro-N-[(3R)-3-piperidyl]-4-(triazolo[4,5-b]pyridin-3-yl)benzamide] | 300 | – |
| Cc1cccc2ccnc(N(C(=O)c3ccc(-c4cnn(C)c4N)cc3F)[C@@H]3CCCNC3)c12 [Example 388, 4-(5-amino-1-methyl-pyrazol-4-yl)-2-fluoro-N-(8-methyl-1-isoquinolyl)-N-[(3R)-3-piperidyl]benzamide] | 76 | – |
| Cc1nc(-c2ccc(C(=O)N(c3nccc4cccc(C)c34)[C@@H]3CCCNC3)c(F)c2)c(N)[nH]1 [Example 389, 4-(5-amino-2-methyl-1H-imidazol-4-yl)-2-fluoro-N-(8-methyl-1-isoquinolyl)-N-[(3R)-3-piperidyl]benzamide] | > 10000 | – |
| Cc1cccc2ccnc(N(C(=O)c3ccc(-c4nn(C)nc4Br)cc3F)[C@@H]3CCCNC3)c12 [Example 390, 4-(5-bromo-2-methyl-triazol-4-yl)-2-fluoro-N-(8-methyl-1-isoquinolyl)-N-[(3R)-3-piperidyl] benzamide] | 240 | – |
| Cc1cccc2ccnc(N(C(=O)c3ccc(-c4cn(C)nc4N)cc3F)[C@@H]3CCCNC3)c12 [Example 391, 4-(3-amino-1-methyl-pyrazol-4-yl)-2-fluoro-N-(8-methyl-1-isoquinolyl)-N-[(3R)-3-piperidyl] benzamide] | > 10000 | – |
| Cc1nn(C)c(-c2ccc(C(=O)N(c3nccc4cccc(C)c34)[C@@H]3CCCNC3)c(F)c2)c1N [Example 392, 4-(4-amino-2,5-dimethyl-pyrazol-3-yl)-2-fluoro-N-(8-methyl-1-isoquinolyl)-N-[(3R)-3-piperidyl]benzamide] | 840 | – |
| Cc1cn(-c2ccc(C(=O)N(c3nccc4cccc(Cl)c34)[C@@H]3CCCNC3)c(F)c2)nn1 [Example 393, (R)—N-(8-chloroisoquinolin-1-yl)-2-fluoro-4-(4-methyl-1H-1,2,3-triazol-1-yl)-N-(piperidin-3-yl)benzamide] | 150 | – |
| Cc1nnc(-c2ccc(C(=O)N(c3nccc4cccc(C)c34)[C@@H]3CCCNC3)c(F)c2)o1 [Example 394, (R)-2-fluoro-4-(5-methyl-1,3,4-oxadiazol-2-yl)-N-(8-methylisoquinolin-1-yl)-N-(piperidin-3-yl)benzamide] | 140 | – |
| Cn1nnc(-c2ccc(C(=O)N(c3nccc4cc(-c5cn[nH]c5)ccc34)[C@@H]3CCCNC3)cc2)n1 [Example 395, (R)—N-(6-(1H-pyrazol-4-yl)isoquinolin-1-yl)-4-(2-methyl-2H-tetrazol-5-yl)-N-(piperidin-3-yl)benzamide] | – | 230 |
| C#Cc1ccc2c(N(C(=O)c3ccc(-n4nnc5cccnc54)cc3F)[C@@H]3CCCNC3)nccc2c1 [Example 396, (R)-4-(3H-[1,2,3]triazolo[4,5-b]pyridin-3-yl)-N-(6-ethynylisoquinolin-1-yl)-2-fluoro-N-(piperidin-3-yl)benzamide] | 150 | – |
| O=C(c1ccc(Nc2ncccn2)cc1F)N(c1nccc2cc(-c3cccnc3)ccc12)[C@@H]1CCCNC1 [Example 397, (R)-2-fluoro-N-(piperidin-3-yl)-N-(6-(pyridin-3-yl)isoquinolin-1-yl)-4-(pyrimidin-2-ylamino)benzamide] | 460 | – |
| O=C(c1ccc(-n2nnc3cccnc32)cc1F)N(c1nccc2cc(C#CCO)ccc12)[C@@H]1CCCNC1 [Example 398, (R)-4-(3H-[1,2,3]triazolo[4,5-b]pyridin-3-yl)-2-fluoro-N-(6-(3-hydroxyprop-1-yn-1-yl)isoquinolin-1-yl)-N-(piperidin-3-yl)benzamide] | – | 71 |

| SMILES | IC50 [1] [nM] | IC50 [nM] |
| --- | --- | --- |
| C=CC(=O)NC1CCCN(C(=O)N(c2nccc3cccc(C)c23)[C@@H]2CCCNC2)C1 (stereo partly drawn) [Example 399, 3-acrylamido-N-(8-methylisoquinolin-1-yl)-N—((R)-piperidin-3-yl)piperidine-1-carboxamide] | 1100 | – |
| COC(=O)c1ccnc(Nc2ccc(C(=O)N(c3nccc4cccc(C)c34)[C@@H]3CCCNC3)c(F)c2)n1 [Example 400, methyl (R)-2-((3-fluoro-4-((8-methylisoquinolin-1-yl)(piperidin-3-yl)carbamoyl)phenyl)amino)pyrimidine-4-carboxylate] | 2400 | – |
| Cc1cccc2ccnc(N(C(=O)c3ccc(Nc4nccc(C(=O)O)n4)cc3F)[C@@H]3CCCNC3)c12 [Example 401, (R)-2-((3-fluoro-4-((8-methylisoquinolin-1-yl)(piperidin-3-yl)carbamoyl)phenyl)amino)pyrimidine-4-carboxylic acid] | > 10000 | – |
| Cc1cccc2ccnc(N(C(=O)c3ccc(Nc4nccc(C(N)=O)n4)cc3F)[C@@H]3CCCNC3)c12 [Example 402, (R)-2-((3-fluoro-4-((8-methylisoquinolin-1-yl)(piperidin-3-yl)carbamoyl)phenyl)amino)pyrimidine-4-carboxamide] | 290 | – |
| Cn1cc(-c2ccc(C(=O)N(c3nccc4cccc(CCc5cccnc5)c34)[C@@H]3CCCNC3)cc2)nn1 [Example 403, 4-(1-methyltriazol-4-yl)-N-[(3R)-3-piperidyl]-N-[8-[2-(3-pyridyl)ethyl]-1-isoquinolyl]benzamide] | 2100 | – |
| Cn1cc(-c2ccc(C(=O)N(c3nccc4cc(-c5nnn[nH]5)ccc34)[C@@H]3CCCNC3)c(F)c2)nn1 [Example 405, (R)—N-(6-(1H-tetrazol-5-yl)isoquinolin-1-yl)-2-fluoro-4-(1-methyl-1H-1,2,3-triazol-4-yl)-N-(piperidin-3-yl)benzamide] | 7800 | – |
| O=C(O)/C=C/c1ccc2c(N(C(=O)c3ccc(-n4nnc5cccnc54)cc3F)[C@@H]3CCCNC3)nccc2c1 [Example 406, (R,E)-3-(1-(4-(3H-[1,2,3]triazolo[4,5-b]pyridin-3-yl)-2-fluoro-N-(piperidin-3-yl)benzamido)isoquinolin-6-yl)acrylic acid] | > 10000 | – |
| O=C(O)CCc1ccc2c(N(C(=O)c3ccc(-n4nnc5cccnc54)cc3F)[C@@H]3CCCNC3)nccc2c1 [Example 407] | > 10000 | – |
| Cc1cccc2ccnc(N(C(=O)c3ccc(Nc4nccc(N5CCOCC5)n4)cc3F)[C@@H]3CCCNC3)c12 [Example 408, (R)-2-fluoro-N-(8-methylisoquinolin-1-yl)-4-((4-morpholinopyrimidin-2-yl)amino)-N-(piperidin-3-yl)benzamide] | 5.3 | – |
| Cc1cccc2ccnc(N(C(=O)c3ccc(Nc4ncc(F)cn4)cc3F)[C@@H]3CCCNC3)c12 [Example 409, (R)-2-fluoro-4-((5-fluoropyrimidin-2-yl)amino)-N-(8-methylisoquinolin-1-yl)-N-(piperidin-3-yl)benzamide] | 54 | – |
| Cc1cccc2ccnc(N(C(=O)c3ccc(Nc4ncc(N)cn4)cc3F)[C@@H]3CCCNC3)c12 [Example 410, (R)-4-((5-aminopyrimidin-2-yl)amino)-2-fluoro-N-(8-methylisoquinolin-1-yl)-N-(piperidin-3-yl)benzamide] | 190 | – |
| O=C(c1ccc(-n2nnc3cccnc32)cc1F)N(c1nccc2sc(C#Cc3ccncc3)cc12)[C@@H]1CCCNC1 [Example 411, 2-fluoro-N-[(3R)-3-piperidyl]-N-[2-[2-(4-pyridyl)ethynyl]thieno[3,2-c]pyridin-4-yl]-4-(triazolo[4,5-b]pyridin-3-yl)benzamide] | 390 | – |
| Nc1ccc(-c2cc3c(N(C(=O)c4ccc(-n5nnc6cccnc65)cc4F)[C@@H]4CCCNC4)nccc3s2)cc1 [Example 412, N-[2-(4-aminophenyl)thieno[3,2-c]pyridin-4-yl]-2-fluoro-N-[(3R)-3-piperidyl]-4-(triazolo[4,5-b]pyridin-3-yl)benzamide] | 63 | – |
| NS(=O)(=O)c1ccc(-c2cc3c(N(C(=O)c4ccc(-n5nnc6cccnc65)cc4F)[C@@H]4CCCNC4)nccc3s2)cc1 [Example 414, 2-fluoro-N-[(3R)-3-piperidyl]-N-[2-(4-sulfamoylphenyl)thieno[3,2-c]pyridin-4-yl]-4-(triazolo[4,5-b]pyridin-3-yl)benzamide] | 220 | – |
| CC(C)Cn1cc(-c2cc3c(N(C(=O)c4ccc(-n5nnc6cccnc65)cc4F)[C@@H]4CCCNC4)nccc3s2)nn1 [Example 415, 2-fluoro-N-[2-(1-isobutyltriazol-4-yl)thieno[3,2-c]pyridin-4-yl]-N-[(3R)-3-piperidyl]-4-(triazolo[4,5-b]pyridin-3-yl)benzamide] | 1200 | – |
| O=C(c1ccc(-n2nnc3cccnc32)cc1F)N(c1nccc2sc(-c3cscn3)cc12)[C@@H]1CCCNC1 [Example 416, 2-fluoro-N-[(3R)-3-piperidyl]-N-(2-thiazol-4-ylthieno[3,2-c]pyridin-4-yl)-4-(triazolo[4,5-b]pyridin-3-yl)benzamide] | 180 | – |
